Laboratory results: patent US10850134B2, “Method and kit for home controlled ovarian stimulation for in vitro fertilization” (priority 2019, dated 2020)
Values joined by “and” are separate entries in the source; they are usually repeats but may differ in a detail not shown here. Equal entries are not always repeated.

Key:
[1] = system: Luteinizing hormone (LH) blood level; test: LH blood level in patients on home controlled ovarian hyperstimulation method with vaginal elagolix (Example 2); format: in vivo, female patients; conditions: for Luteinizing hormone (LH) blood level: 50 mg elagolix vaginal suppository days 9 and 11
Experimental: Five female patients were treated with the controlled ovarian hyperstimulation method described herein using the elagolix pill (vaginal route) instead of the conventional Ganirelex/Cetrotide injectables. On day 3 of the patient's menstrual cycle, the patient orally took 100 mg (two 50 mg oral tablets) of clomiphene citrate and 5 mg (two 2.5 mg oral tablets) of letrozole. The patient then took the same oral dosages of clomiphene citrate and letrozole daily on each of days 4-7 of the patient's menstrual cycle. On day 8 of the patient's menstrual cycle, the patient orally took only 100 mg (two 50 mg oral tablets) of clomiphene citrate, and stopped the letrozole. On day 9 of the menstrual cycle, the patient orally took 100 mg (two 50 mg oral tablets) of clomiphene citrate and inserted vaginally a 50 mg tablet of elagolix as a vaginal suppository. On day 10 of the menstrual cycle, the patient orally took only 100 mg (two 50 mg oral tablets) of clomiphene citrate. On day 11 of the menstrual cycle, the patient orally took 100 mg (two 50 mg oral tablets) of clomiphene citrate and inserted vaginally a 50 mg tablet of elagolix as a vaginal suppository. Also, on day 11, the patient took a home ovulation test in the morning (9:00 am) and in the evening (9:00 pm). For the patients whose ovulation tests were not positive, then on days 12 and 13, the patient took 2 doses of leuprorelin as a nasal spray (1:40 dilution in saline) as follows. On day 12, after taking a home ovulation test at 9:00 am, 2 puffs (sprays) of the nasal spray were self-administered by the patient per nostril. After 12 hours of waiting, at 9:00 pm the patient took a home urine ovulation test and then self-administered 2 more puffs (sprays) of the nasal spray per nostril. On day 13, the patient repeated the procedure of day 12. Luteinizing hormone (LH) blood level was 7.0 mIU/mL on day 11 and dropped to 1.0 mIU/mL on day 13.
(§1) Table 2 below provides a comparison of the efficacy of conventional Ganirelex/Cetrotide injectables treatment for IVF in the five representative patients from Example 1 with the home controlled ovarian hyperstimulation method described herein in the five representative patients from Example 2.

[2] = system: Luteinizing hormone (LH) blood level; test: LH blood level in patients on GnRH antagonist protocol with ganirelix acetate injections (Example 1); format: in vivo, female patients
Experimental: Five female patients were treated with a GnRH antagonist protocol requiring injections of medications.
One patient, patient no. 1, was injected with 150 Units of FSH on days 3 to 12; half a syringe of 150 mcg/0.5 mL of ganirelix acetate on days 11 and 12; and 50 mg of clomiphene citrate on days 3 to 12; and 2.5 mg of letrozole on days 3 to 7. Luteinizing hormone (LH) blood level was 4.3 mIU/mL on day 10 and dropped to 2 mIU/mL on day 12.
A second patient, patient no. 2, was injected with 75 Units of FSH on days 4 to 12 and 150 Units on day 13; half a syringe of 150 mcg/0.5 mL of ganirelix acetate on days 11 to 13; 50 mg of clomiphene citrate on days 10 to 12, and 2.5 mg of letrozole on days 3 to 7. Luteinizing hormone (LH) blood level was 12.0 mIU/mL on day 11 and dropped to 6.3 mIU/mL on day 13.
Three patients, numbered 3 to 5, were injected with 75, 150 and 225 Units of FSH, respectively, on days 4 to 12 and one third a syringe of 150 mcg/0.5 mL of ganirelix acetate on days 11 to 13. Patient no. 3 received 50 mg of clomiphene citrate on days 4 to 12, and 2.5 mg of letrozole on days 4 to 8. Patient no. 4 received 100 mg of clomiphene citrate and 2.5 mg of letrozole on days 4 to 8, and 50 mg of clomiphene citrate on days 9 to 11. Patient no. 5 received no clomiphene citrate or letrozole. Luteinizing hormone (LH) blood level was 12.0, 18.0 and 14.6 mIU/mL, respectively, on day 10 and dropped to 4.9, 16.0 and 14.1 mIU/mL, respectively, on day 12.
as §1

[3] = Example 2, vaginal elagolix suppository 50 mg days 9 and 11, individual patients 1-5, blood
[4] = Example 1, conventional injectables, individual patients 1-5, blood

With `COc1cccc(-c2c(C)n(Cc3c(F)cccc3C(F)(F)F)c(=O)n(C[C@H](NCCCC(=O)O)c3ccccc3)c2=O)c1F` [Vaginal elagolix suppository, elagolix] the “% Drop in blood LH hormone level” value ([1]; Example 2, vaginal elagolix suppository 50 mg days 9 and 11, individual patients 1-5) was 85.7% and 65.9% and 68.6% and 79.3% and 88.6%, the “LH blood hormone level (mIU/mL) AFTER medication intake” value [1, 3] was 1.0 mIU/mL and 5.7 mIU/mL and 3.2 mIU/mL and 1.7 mIU/mL and 0.8 mIU/mL and the “LH blood hormone level (mIU/mL) BEFORE medication intake” value [1, 3] was 7.0 mIU/mL and 16.7 mIU/mL and 10.2 mIU/mL and 8.2 mIU/mL and 7 mIU/mL. For the same compound, the “Luteinizing hormone (LH) blood level” value ([1]; day 11) was 7.0 mIU/mL, the “drop in LH blood hormone levels” value ([1]; day 11 to day 13) was 85.7% and the “Luteinizing hormone (LH) blood level” value ([1]; day 13) was 1.0 mIU/mL.

ganirelix acetate was tested, and the “% Drop in blood LH hormone level” value ([2]; Example 1, conventional injectables, individual patients 1-5) was 53.5% and 47.5% and 59.2% and 11.1% and 3.4%, the “LH blood hormone level (mIU/mL) AFTER medication intake” value [2, 4] was 2.0 mIU/mL and 6.3 mIU/mL and 4.9 mIU/mL and 16.0 mIU/mL and 14.1 mIU/mL and the “LH blood hormone level (mIU/mL) BEFORE medication intake” value [2, 4] was 4.3 mIU/mL and 12.0 mIU/mL (2×) and 18.0 mIU/mL and 14.6 mIU/mL. The “Luteinizing hormone (LH) blood level” value ([2]; patient no. 1, day 10, half a syringe ganirelix acetate days 11 and 12, 150 Units FSH) was 4.3 mIU/mL, the “drop in LH blood hormone levels” value ([2]; patient no. 1, day 10 to day 12) was 53.5% and the “Luteinizing hormone (LH) blood level” value ([2]; patient no. 1, day 12, half a syringe ganirelix acetate days 11 and 12, 150 Units FSH) was 2 mIU/mL. The “Luteinizing hormone (LH) blood level” value ([2]; patient no. 2, day 11, half a syringe ganirelix acetate days 11 to 13, 75 Units FSH) was 12.0 mIU/mL, the “drop in LH blood hormone levels” value ([2]; patient no. 2, day 11 to day 13) was 47.5% and the “Luteinizing hormone (LH) blood level” value ([2]; patient no. 2, day 13, half a syringe ganirelix acetate days 11 to 13, 75 Units FSH) was 6.3 mIU/mL. The “Luteinizing hormone (LH) blood level” value ([2]; patient no. 3, day 10, one third a syringe ganirelix acetate days 11 to 13, 75 Units FSH) was 12.0 mIU/mL, the “drop in LH blood hormone levels” value ([2]; patient no. 3, day 10 to day 12) was 59.25 and the “Luteinizing hormone (LH) blood level” value ([2]; patient no. 3, day 12, one third a syringe ganirelix acetate days 11 to 13, 75 Units FSH) was 4.9 mIU/mL. The “Luteinizing hormone (LH) blood level” value ([2]; patient no. 4, day 10, one third a syringe ganirelix acetate days 11 to 13, 150 Units FSH) was 18.0 mIU/mL, the “drop in LH blood hormone levels” value ([2]; patient no. 4, day 10 to day 12) was 11.1% and the “Luteinizing hormone (LH) blood level” value ([2]; patient no. 4, day 12, one third a syringe ganirelix acetate days 11 to 13, 150 Units FSH) was 16.0 mIU/mL. For the same compound, the “Luteinizing hormone (LH) blood level” value ([2]; patient no. 5, day 10, one third a syringe ganirelix acetate days 11 to 13, 225 Units FSH, no clomiphene citrate or letrozole) was 14.6 mIU/mL, the “drop in LH blood hormone levels” value ([2]; patient no. 5, day 10 to day 12) was 3.4% and the “Luteinizing hormone (LH) blood level” value ([2]; patient no. 5, day 12, one third a syringe ganirelix acetate days 11 to 13, 225 Units FSH, no clomiphene citrate or letrozole) was 14.1 mIU/mL.
